Values quoted from earlier work as cited in patent US20230089681A1, “USE OF A COMBINATION OF SULFICANT COMPOUNDS WITH A LIQUID CARRIER AS A SELF EMULSIFYING DRUG DELIVERY SYSTEM” (priority 2021, published 2023).
Read-outs that look alike come from different tables or passages of the source.

absorption (oral, in capsule form taken with water): 0.306% | absorption (traditional oral administration): 0.36%
SMILES: COc1ccc2cc3[n+](cc2c1OC)CCc1cc2c(cc1-3)OCO2 [Berberine]
